Source: patent publication US9399653B2, “Methods and systems for preparing irreversible inhibitors of protein tyrosine phosphatases” (The Governors of the University of Alberta, priority 2010, dated 2016)
“And” between values parts separate entries of the source, which are not always exact repeats. Identical values can stand only once.

What was measured:
[1] = molecular target: T1, human CD45-cytoplasmic domain (Homo sapiens, UniProt P08575); test: Phosphatase enzyme inhibition, CD45, fluorogenic substrate DiFMUP; assay type: biochemical; conditions: for inhibition of CD45 (in words): DiFMUP substrate
T1 construct: human CD45-cytoplasmic domain (Enzo Life Science); purchased Enzo Life Science
T1 sequence (P08575 599-1306 limits assumed): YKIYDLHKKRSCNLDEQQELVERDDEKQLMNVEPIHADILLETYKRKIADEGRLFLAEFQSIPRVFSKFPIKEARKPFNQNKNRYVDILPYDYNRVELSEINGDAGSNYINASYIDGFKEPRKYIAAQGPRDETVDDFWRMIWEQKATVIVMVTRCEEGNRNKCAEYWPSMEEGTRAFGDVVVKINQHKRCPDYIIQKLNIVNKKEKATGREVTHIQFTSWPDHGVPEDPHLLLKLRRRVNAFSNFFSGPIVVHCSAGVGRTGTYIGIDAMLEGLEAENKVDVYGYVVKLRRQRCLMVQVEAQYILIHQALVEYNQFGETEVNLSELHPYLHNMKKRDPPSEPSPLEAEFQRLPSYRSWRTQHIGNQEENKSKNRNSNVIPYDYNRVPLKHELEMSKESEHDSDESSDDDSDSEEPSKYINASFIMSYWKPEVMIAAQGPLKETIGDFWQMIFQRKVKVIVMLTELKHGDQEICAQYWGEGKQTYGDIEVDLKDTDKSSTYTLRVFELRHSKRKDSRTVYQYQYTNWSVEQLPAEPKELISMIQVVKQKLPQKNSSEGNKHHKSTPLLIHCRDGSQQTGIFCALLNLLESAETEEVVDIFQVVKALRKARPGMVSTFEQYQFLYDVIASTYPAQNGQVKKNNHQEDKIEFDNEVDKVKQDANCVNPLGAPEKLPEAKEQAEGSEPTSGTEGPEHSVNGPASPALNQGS
Procedure: Enzyme assays were conducted using human CD45-cytoplasmic domain (Enzo Life Science; diluted to 4 mU/μL in 50 mM HEPES, pH 7.2, 1 mM EDTA, and 0.1% nonidet P-40) (FIG. 6-8), or bovine alkaline phosphatase (New England Bio Labs; diluted to 4 mU/μL in 100 mM NaCl, 50 mM tris-HCl, 10 mM MgCl2 1 mM dithiothreitol, pH 7.9) (FIG. 2-5). Enzyme activity was detected with a fluorogenic substrate (6,8-difluoro-4-methylumbelliferyl phosphate; DiFMUP) (Invitrogen). Assays were performed in black 96-well plates and read in a Spectra Max M2 plate reader (Molecular Devices). For CD45 assays, substrate concentration was between 1 μM to 50 μM, for alkaline phosphatase substrate concentration was between 10 nM to 10 μM. Stock solutions of inhibitors (100 mM of compound 7 in deionized water; and 10 mM of compound 17 in 50% deionized water and 50% DMSO) were prepared and stored at −20° C. Final solutions in microplate wells contained a total volume of 100 μL consisting of 2 μL of diluted enzyme, inhibitor, and DiFMUP substrate diluted to 100 μL in the appropriate buffer. All wells were incubated for 10 min at 37° C. in the plate reader prior to the addition of DiFMUP. After incubation, substrate was added and the plate was read at an excitation maximum of 358 nm and an emission maximum of 450 nm every 30 seconds for 125 min (CD45) or 65 min (alkaline phosphatase).
The Km for DiFMUP with each enzyme was first determined, and the experiment was then repeated in the presence of the inhibitor at a concentration close to an initially estimated K, (TABLE 1). […] Previous reports of PTP inhibition using BBP analogs observed irreversible inhibition of the enzyme.(22) Evaluation of the kinetic data described above using reciprocal plots (FIG. 9-12) was not consistent with pure competitive inhibition of CD45, but this analysis is not conclusive on its own.
(§1) The Kitz-Wilson analysis estimated the rate of irreversible inhibition (k3) of CD45 at 0.05 min^−1 for both compounds. To provide additional support for the expected mechanism of inhibition, we measured CD45 activity for an enzyme sample which was pre-incubated with the inhibitor and compared it to an enzyme sample that was only incubated with the inhibitor for a short period.

CD45 = molecular target: T2, CD45 (Homo sapiens, UniProt P08575); test: Time-dependent inhibition of CD45 (pre-incubation with inhibitor); assay type: biochemical; conditions: compound at 25 μM, enzyme incubated 13 h (FIG. 13)
T2 construct: Enzyme assays were conducted using human CD45-cytoplasmic domain (Enzo Life Science); purchased Enzo Life Science
T2 sequence (P08575 599-1306 limits assumed): T1 sequence (P08575 599-1306 limits assumed)
Procedure: FIG. 13 is a plot of time-dependent inhibition of CD45 enzyme activity in the presence of compound 1 at a concentration of 25 μM. The enzyme was incubated for 13 h, either alone or in the presence of compound 1.
Time-Dependent Inhibition of CD45 by Compound 1
as §1

O=P(O)(O)C(Br)c1ccccc1 (centres unmarked) [compound 7, [bromo(phenyl)methyl]phosphonic acid, reference compound]
inhibition of CD45 (in words) [1]: failure to alter the rate of reaction
KI ([1]; Kitz-Wilson analysis): did not give a saturating curve

L-BrPmp-OH [compound 1]
CD45 activity after pre-incubation with inhibitor (CD45): at long incubation times completely inactivated the enzyme

CC(C)C[C@H](NC(=O)[C@H](Cc1ccc(C(Br)P(=O)(O)O)cc1)NC(=O)[C@@H](N)CC(=O)O)C(=O)O (some centres unmarked) [compound 17, Asp-BrPmp-Leu]
inhibition of CD45 (in words) [1]: significant inhibition of the enzyme at low micromolar concentrations
Ki ([1]; Kitz-Wilson analysis): 16 ± 4 µM
k3, rate of enzyme inactivation ([1]; Kitz-Wilson analysis): 0.05 min⁻¹ and 0.048 ± 0.003 min⁻¹
potency relative to BrPmp alone ([1]; from Kitz-Wilson KI values (Example 8)): approximately 4 fold
potency relative to BrPmp alone ([1]; initial kinetic data (Example 7)): approximately 7 fold
